Assay results published in US8754115B2, “Fungicidal pyrazoles” (E I du Pont de Nemours and Company, priority 2010, dated 2014).
Marks after values point to notes of the source that are not given here.

Tests used:
Format in all cases: in vivo
[1] = test system: Puccinia recondite f. sp. tritici; experiment: Test E2: preventive spray on wheat seedlings, visual disease rating (wheat leaf rust)
Text: (§1) General protocol for preparing test suspensions for Tests A-F: the test compounds were first dissolved in acetone in an amount equal to 3% of the final volume and then suspended at the desired concentration (in ppm) in acetone and purified water (50/50 mix by volume) containing 250 ppm of the surfactant Trem® 014 (polyhydric alcohol esters). The resulting test suspensions were then used in Tests A-F. Spraying a 200 ppm test suspension to the point of run-off on the test plants was the equivalent of a rate of 800 g/ha. Unless otherwise indicated, the rating values indicate a 200 ppm test suspension was used. (An asterisk “*” next to the rating value indicates a 40 ppm test suspension was used.)
The test suspension was sprayed to the point of run-off on wheat seedlings. The following day the seedlings were inoculated with a spore suspension of Puccinia recondite f. sp. tritici (the causal agent of wheat leaf rust) and incubated in a saturated atmosphere at 20° C. for 24 h, and then moved to a growth chamber at 20° C. for 7 days, after which time visual disease ratings were made.
(§2) Results for Tests A-F are given in Table A. In the Table, a rating of 100 indicates 100% disease control and a rating of 0 indicates no disease control (relative to the controls). A dash (-) indicates no test results. An asterisk “*” next to the rating value indicates a 40 ppm test suspension was used.

Septoria tritici = experiment: Test D: preventive spray on wheat seedlings, visual disease rating (wheat leaf blotch)
Text: as §1
(§3) The test suspension was sprayed to the point of run-off on wheat seedlings. The following day the seedlings were inoculated with a spore suspension of Septoria tritici (the causal agent of wheat leaf blotch) and incubated in saturated atmosphere at 24° C. for 48 h, and then moved to a growth chamber at 20° C. for 19 days, after which time visual disease ratings were made.
as §2

[2] = test system: Blumeria graminis f. sp. tritici; experiment: Test F: preventive spray on wheat seedlings, visual disease rating (wheat powdery mildew)
Text: as §1
The test suspension was sprayed to the point of run-off on wheat seedlings. The following day the seedlings were inoculated with a spore dust of Blumeria graminis f. sp. tritici, (also known as Erysiphe graminis f. sp. tritici, the causal agent of wheat powdery mildew) and incubated in a growth chamber at 20° C. for 8 days, after which time visual disease ratings were made.
as §2

Botrytis cinerea = experiment: Test A: preventive spray on tomato seedlings, visual disease rating (tomato Botrytis)
Text: as §1
as §3, with “tomato” for “wheat”, “Botrytis cinerea” for “Septoria tritici”, “tomato Botrytis)” for “wheat leaf blotch)”, “20°” for “24°”, “24°” for “20°”, “3” for “19”
as §2

[3] = no asterisk: standard test suspension, not 40 ppm
[4] = no asterisk: standard test suspension, not 40 ppm, 100 = 100% disease control, 0 = none
[5] = asterisk: 40 ppm test suspension

SMILES	Test E2 rating (% disease control) [1, 3] [%]	Test D rating (% disease control) (Septoria tritici; [3]) [%]	Test F rating (% disease control) [2, 3] [%]	Test A rating (% disease control) (Botrytis cinerea; [4]) [%]	Test E2 rating (% disease control) [1, 5]	Test D rating (% disease control) (Septoria tritici; [5])	Test F rating (% disease control) [2, 5]	Test A rating (% disease control) (Botrytis cinerea; [5])	further results
Cc1nn(C)c(-c2ccc(F)cc2I)c1C(O)c1ccc(F)cc1Cl (single isomer, unassigned) [compound 103]	96	98	95	99					
Cc1nn(C)c(-c2ccc(F)cc2I)c1C(O)c1ccc(F)cc1Cl (single isomer, unassigned) [compound 104]					97* %	98* %	72* %	0* %	
Cc1nn(C)c(-c2c(F)cccc2F)c1C(OCC#N)c1ccc(F)cc1Cl (stereo not drawn) [Compound 107]					99* %	99* %	99* %	9* %	
CC(=O)OC(c1ccc(F)cc1Cl)c1c(C)nn(C)c1-c1c(F)cccc1F (stereo not drawn) [Compound 108]					100* %	100* %	100* %	99* %	
C=CCOC(c1ccc(F)cc1Cl)c1c(C)nn(C)c1-c1c(F)cccc1F (stereo not drawn) [Compound 109]					98* %	100* %	97* %	0* %	
COCOC(c1ccc(F)cc1Cl)c1c(C)nn(C)c1-c1c(F)cccc1F (stereo not drawn) [Compound 110]					98* %	100* %	99* %	0* %	
Cc1nn(C)c(-c2c(F)cccc2F)c1C(SC#N)c1ccc(F)cc1Cl (stereo not drawn) [Compound 111]	100	100	100	100					
Cc1nn(C)c(-c2c(F)cccc2F)c1C(SC#N)c1ccc(F)cc1F (stereo not drawn) [Compound 115]					94* %	100* %	99* %	88* %	
Cc1nn(C)c(-c2c(F)cccc2F)c1C(SC#N)c1c(F)cc(F)cc1F (stereo not drawn) [Compound 116]					9* %	78* %	0* %	0* %	
Cc1nn(C)c(-c2c(F)cccc2Cl)c1C(SC#N)c1ccc(F)cc1Cl (stereo not drawn) [Compound 121]					100* %	100* %	100* %	97* %	
Cc1nn(C)c(-c2c(F)cccc2Cl)c1C(SC#N)c1ccc(F)cc1F (stereo not drawn) [Compound 122]					100* %	100* %	99* %	98* %	
Cc1nn(C)c(-c2c(F)cccc2Cl)c1C(SC#N)c1c(F)cc(F)cc1F (stereo not drawn) [Compound 123]					99* %	100* %	90* %	87* %	
COc1nn(C)c(-c2c(F)cccc2F)c1C(O)c1ccc(F)cc1C (stereo not drawn) [Compound 157, 5-(2,6-difluorophenyl)-α-(4-fluoro-2-methylphenyl)-3-methoxy-1-methyl-1H-pyrazole-4-methanol]									pest or weed control at 40 ppm ([1]; 192 h, asterisk: 40 ppm test suspension): 100%; pest or weed control at 40 ppm (Septoria tritici; Zymoseptoria tritici, 504 h, asterisk: 40 ppm test suspension): 100%; pest or weed control at 40 ppm ([2]; Blumeria graminis, 192 h, asterisk: 40 ppm test suspension): 100%; pest or weed control at 40 ppm (Botrytis cinerea; Botrytis cinerea, 120 h, asterisk: 40 ppm test suspension): 100%
Cc1nn(C)c(-c2c(F)cccc2Br)c1C(=O)c1ccc(F)cc1Cl [compound 93]	91	7	100	90					
Cc1nn(C)c(-c2c(F)cccc2Br)c1C(O)c1ccc(F)cc1Cl (stereo not drawn) [compound 94]	100	100	100	99					
Cc1nn(C)c(-c2ccc(F)cc2Br)c1C(O)c1ccc(F)cc1Cl (stereo not drawn) [compound 95]					98* %	99* %	95* %	94* %	

SMILES	Test E2 rating (% disease control) [1, 3] [%]	Test D rating (% disease control) (Septoria tritici; [3]) [%]	Test F rating (% disease control) [2, 3] [%]	Test A rating (% disease control) (Botrytis cinerea; [4]) [%]	Test E2 rating (% disease control) [1, 5]	Test D rating (% disease control) (Septoria tritici; [5])	Test F rating (% disease control) [2, 5]	Test A rating (% disease control) (Botrytis cinerea; [5])	further results
Cc1nn(C)c(-c2ccc(Cl)cc2Cl)c1C(O)c1ccc(F)cc1F (stereo not drawn) [compound 97]	100	100	99	99					
Cc1nn(C)c(-c2c(Cl)cncc2Cl)c1C(O)c1ccc(F)cc1Cl (stereo not drawn) [compound 98]					100* %	100* %	100* %	94* %	
Cc1nn(C)c(-c2ccc(F)cc2Cl)c1C(O)c1ccc(F)cc1I (stereo not drawn) [compound 99]	100	100	99	97					
Cc1nn(C)c(-c2ccc(Cl)cc2Cl)c1C(O)c1ccc(F)cc1Cl (stereo not drawn) [compound 100]	100	100	99						
Cc1nn(C)c(-c2ccc(Cl)cc2Cl)c1C(O)c1ccc(Cl)cc1F (stereo not drawn) [compound 101]	99	100	72						
Cc1nn(C)c(-c2c(F)cc(Br)cc2F)c1C(=O)c1ccc(F)cc1F [compound 102]	55	0	97	0					
Cc1nn(C)c(-c2ccc(F)cc2)c1C(O)c1ccc(F)cc1Cl (stereo not drawn) [compound 105]					98* %	100* %	81* %	0* %	
Cc1nn(C)c(-c2c(F)cc(Br)cc2F)c1C(O)c1ccc(F)cc1F (stereo not drawn) [compound 106]	97	100	0	98					
Cc1nn(C)c(-c2c(F)cc(C#N)cc2F)c1C(O)c1ccc(F)cc1F (stereo not drawn) [compound 112]	100	100	97	80					
COc1nn(C)c(-c2ccc(F)cc2Cl)c1C(O)c1ccc(F)cc1Cl (stereo not drawn) [compound 118]	99	100	100	100					
COc1nn(C)c(-c2c(F)cccc2Cl)c1C(O)c1ccc(F)cc1Cl (stereo not drawn) [compound 120]	100	100	100	100					
Cn1nc(Br)c(C(O)c2ccc(F)cc2F)c1-c1c(F)cccc1F (stereo not drawn) [compound 124]	100	100	100	99					
Cn1nc(Br)c(C(O)c2ccc(F)cc2Cl)c1-c1ccc(F)cc1Cl (stereo not drawn) [compound 125]	100	100	87	82					
COc1nn(C)c(-c2c(F)cccc2F)c1C(O)c1ccc(F)cc1Cl (stereo not drawn) [compound 126]	100	100	100	100					
CCOc1nn(C)c(-c2c(F)cccc2F)c1C(O)c1ccc(F)cc1Cl (stereo not drawn) [compound 127]	91	100	99	76					
Cc1cc(F)ccc1C(O)c1c(C)nn(C)c1-c1c(F)cccc1F (stereo not drawn) [compound 129]	99	100	100	100					
